Where a name gives a salt, the structure may show the parent alone. Read-outs that look alike come from different tables or passages of the source.

In general, EC50 refers to the concentration that produces a half-maximal response.

The target in assay [1] is T1, human neutrophil elastase (HNE) (Homo sapiens, UniProt P08246).
T1 construct: purchased Sigma
T1 sequence (P08246 30-267): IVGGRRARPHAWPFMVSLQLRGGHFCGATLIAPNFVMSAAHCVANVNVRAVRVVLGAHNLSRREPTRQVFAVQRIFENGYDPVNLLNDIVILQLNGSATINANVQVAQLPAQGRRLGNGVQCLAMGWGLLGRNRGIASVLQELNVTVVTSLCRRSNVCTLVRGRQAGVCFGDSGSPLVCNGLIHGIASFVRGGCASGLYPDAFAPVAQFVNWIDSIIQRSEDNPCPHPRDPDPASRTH
Put plainly: Specificity assay, human neutrophil elastase. In kind it is biochemical. To be noted: 2 hr pre-incubation, read-out: HLE. The procedure: (§1) The specificities of compounds of the present invention were determined against a variety of serine proteases: human neutrophil elastase (HNE), porcine pancreatic elastase (PPE) and human pancreatic chymotrypsin and one cysteine protease: human liver cathepsin B. In all cases a 96-well plate format protocol using colorimetric p-nitroaniline (pNA) substrate specific for each enzyme was used as described previously (U.S. Pat. No. 6,323,180) with some modifications to the serine protease assays. All enzymes were purchased from Sigma while the substrates were from Bachem.
(§2) Each assay included a 2 hr enzyme-inhibitor pre-incubation at RT followed by addition of substrate and hydrolysis to ˜30% conversion as measured on a Spectramax Pro microplate reader. Compound concentrations varied from 100 to 0.4 μM depending on their potency. […]
(§3) The percentage of inhibition was calculated using the formula: [1−((UVinh−UVblank)/(UVctl−UVblank))]×100 […]

Assay [2] concerns the target T2, porcine pancreatic elastase (PPE) (Sus scrofa, UniProt P00772).
T2 construct: purchased Sigma
Description: Specificity assay, porcine pancreatic elastase. To be noted: 2 hr pre-incubation. In kind it is biochemical. As to the method: as §1, §2, §3

Assay [3] relates to HCV replicon in Huh7 cells. Put plainly: HCV replicon cell-based assay (replicon FRET assay). Further details: species or system HCV strain 1B. Particulars: Hepatitis C virus, Huh-7, HCV replicon cell assay. In outline: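 Huh7 cells carrying a genotype 1b subgenomic replicon (neo, NS3–NS5B) were treated with compound for 4 days at 37 °C in 0.5% DMSO final. Lysates with 10 μM RET S1 FRET peptide and 150 mM NaCl were read kinetically at 340/490 nm over 21 cycles. EC50 was derived as for the enzyme IC50.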
On the technique in general: A replicon is a self-replicating genome or part of one, used to study replication in cells.

T2 sequence (P00772 27-266): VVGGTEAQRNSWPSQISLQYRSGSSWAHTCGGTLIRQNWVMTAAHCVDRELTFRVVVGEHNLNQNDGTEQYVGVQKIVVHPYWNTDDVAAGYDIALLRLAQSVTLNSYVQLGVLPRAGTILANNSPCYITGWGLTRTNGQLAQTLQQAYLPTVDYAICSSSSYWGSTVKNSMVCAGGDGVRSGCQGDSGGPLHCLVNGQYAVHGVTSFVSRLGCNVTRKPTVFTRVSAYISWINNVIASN

On to `COc1ccc2c(O[C@@H]3C[C@H]4C(=O)N[C@]5(C(=O)NS(=O)(=O)C6CC6)CC5/C=C/CCCC[C@H](N)C(=O)N4C3)cc(-c3ccccc3)nc2c1` (stereo partly drawn) [Compound 6, (1S,4R,6S,13S,17R)-7-trans-Cyclopropanesulfonic acid [13-amino-17-(7-methoxy-2-phenylquinolin-4-yloxy)-2,14-dioxo-3,15-diazatricyclo[13.3.0.0^4,6]octadec-7-ene-4-carbonyl]amide dihydrochloride], for which the IC50 in assay [1] was 30 µM; in assay [2], above 100 µM. In addition, the concentration giving a half-maximal response (EC50) in assay [3] (EC50 ranges) was below 0.5 µM; in assay [3] (read-out: EC50), around 0.124 µM.

These data come from patent US6867185B2 (Bristol-Myers Squibb Company, priority 2001, dated 2005).
